Consider two compounds from US10350210B2, “EGFR and ALK dual inhibitor” (PRECEDO PHARMACEUTICALS CO., LTD, priority 2015, dated 2019).

Where only a bound is given, the exact number is not on record here.

One assay relates to BaF3-NPM-ALK. Briefly: Cell growth (Cell Titer-Glo viability), BaF3-NPM-ALK. The class given is cell-based. Particulars: Mus musculus; BaF3-NPM-ALK (stably expressing ALK kinase), 72 hrs. Background: Cellular ATP, detected with luciferase, serves as a proxy for viable cell number.
The subject of another assay is H1975. Briefly: Effect on cell apoptosis (Western Blot, PARP and Caspase 3 cleavage), H1975. The assay is classed as cell-based, human. Conditions: H1975 (EGFR L858R/T790M), 24 hours. The text has this: In order to confirm whether the death of cells is through apoptosis or necrosis after administration of drugs, non-small cell lung cancer cell A549 (expressing wild-type EGFR gene), non-small cell lung cancer cell line H1975 (expressing EGFR L858R/T790M double mutant gene), non-small cell lung cancer cell line H3255 (expressing EGFR L858R mutant gene), non-small cell lung cancer cell line H3122 (expressing ALK gene) cell line, and non-small cell lung cancer cell line PC-9 (expressing EGFR delE746_A750 mutant gene) were tested for effect of Compound 1 on cleavage of poly ADP-ribose polymerase PARP which is a DNA repair enzyme and Caspase 3, which were closely related to cell apoptosis. […] Western Blot was used to detect the effect of various concentrations of drugs at various time points on cleavage of poly ADP-ribose polymerase PARP which is a DNA repair enzyme and Caspase 3.
In general terms: Immunoblotting shows a protein as a band on a membrane.

Another assay concerns CHO. Nature of the assay: Cell growth (Cell Titer-Glo viability), CHO. The assay is classed as cell-based, Chinese hamster. Conditions: Cricetulus griseus; CHO Chinese hamster ovary cell, 72 hrs; read-out: GI50.
A further assay relates to CHL. Nature of the assay: Cell growth (Cell Titer-Glo viability), CHL. The assay is classed as cell-based, Chinese hamster. Conditions: Cricetulus griseus; CHL Chinese hamster lung cell, 72 hrs; read-out: GI50.
Another assay relates to BaF3. Briefly: Cell growth (Cell Titer-Glo viability), BaF3. The assay is classed as cell-based. Particulars: BaF3 mouse primary B cell, 72 hrs.

Usually GI50 stands for the concentration at which growth is held to half of that of the control. For the compound `C=CC(=O)Nc1cc(Nc2ncc(Cl)c(Nc3ccccc3S(=O)(=O)C(C)C)n2)c(OC)cc1N1CCN(CC)CC1` [Compound 1, N-(5-(5-chloro-4-(2-(isopropylsulfonyl)phenylamino)pyrimidin-2-ylamino)-2-(4-ethylpiperazin-1-yl)-4-methoxyphenyl)acrylamide], the GI50 with BaF3-NPM-ALK was below 0.3 nM; in the assay on CHO, 200 nM; with CHL, 1800 nM; in the assay on BaF3 it was 1400 nM. The “concentration at which cleavage of PARP and Caspase 3 could be observed” value with H1975 came to 0.3 µM.

As to `C=CC(=O)Nc1cc(Nc2ncc(Cl)c(Nc3ccccc3S(=O)(=O)C(C)C)n2)c(OC)cc1N1CCCN(C)CC1` [Compound 10, N-(5-(5-chloro-4-(2-(isopropylsulfonyl)phenylamino)pyrimidin-2-ylamino)-4-methoxy-2-(4-methyl-1,4-homopiperazin-1-yl)phenyl)acrylamide], the GI50 is 1 nM in the assay on BaF3-NPM-ALK, 990 nM in the assay with CHO, 3500 nM in the assay with CHL and 1200 nM in the assay on BaF3. The “concentration at which cleavage of PARP and Caspase 3 could be observed” value in the assay with H1975 was found to be 0.3 µM.
